Reference: patent publication US11351218B2, “Composition for preventing or treating glioblastoma comprising Platycodon grandiflorum A. De Candolle, Scutellaria baicalensis, Phellodendron amurense Ruprecht or Rubus coreanus” (University-Industry Cooperation Group of Kyung Hee …, priority 2019, dated 2022)

Tests used:
SQSTM1 mRNA = assay: RT-PCR of SQSTM1 (p62) mRNA in GBM cells; type: cell-based, human; details: PD 5 μM and 10 μM, 24 hours, both GBM cells
Protocol: FIGS. 3A to 3C show the results that PD inhibits autophagic flux in GBM cells. […] The expression of LC3B and SQSTM1 was confirmed by immunoblot analysis. […] GAPDH was used as a loading control.
Total RNA was isolated using the Easy-Blue RNA extraction kit (iNtRON Biotech, Sungnam, Korea) according to the manufacturer's directions. 1 μg of the total RNA was reverse transcribed using a cDNA synthesis kit (TaKaRa, Otsu, Shinga, Japan) according to the manufacturer's instructions. The obtained cDNA was then amplified by PCR in a reaction mixture consisting of 10× Taq buffer, 2.5 mM dNTP mixture, Taq DNA polymerase (Takara), and corresponding primer sets. The primer sequences were as follows. Human SQSTM1-forward: 5′-GAACTCCAGTCCCTACAGATGCC-3′ (SEQ ID NO: 1), SQSTM1-reverse: 5′-CGGGAGATGTGGGTACAAGG 2-3′ (SEQ ID NO: 2); Human LDLR-forward: 5′-CAG ATA TCA TCA ACG AAG C-3′ (SEQ ID NO: 3), LDLR-reverse: 5′-CCTCTCACACCAGTTCACTCC-3′ (SEQ ID NO: 4); Human GAPDH-forward: 5′-CGTCTTCACCACCATGGAGA-3′ (SEQ ID NO: 5), GAPDH—reverse: 5′-CGGCCATCACGCCACAGTTT-3′ (SEQ ID NO: 6). The PCR products were analyzed by 1.5% agarose gels.

U373 cells = assay: GFP-LC3B puncta assay (confocal microscopy), U373 cells; type: cell-based, human; details: U373, 10 μM PD, 24 hours
Protocol: The cells transiently expressing GFP-LC3 (green) were treated with DMSO or PD (10 μM) for 24 hours and analyzed by confocal microscopy. Nuclei were stained with DAPI (blue). Quantification shown on the right graph represents mean GFP-LC3B puncta per cells from three independent experiments±SD.
Cultured cells seeded in plates with microscope coverslips were transfected with a pGFP-LC3B plasmid using Lipofectamine 3000 (Thermo Fisher Scientific) according to the manufacturer's instructions. After the transfection, the cells were fixed with 4% paraformaldehyde (PFA) in phosphate-buffered saline (PBS) at room temperature for 10 minutes. The images were examined under a laser confocal microscope (Zeiss, Oberkochen, Baden-Wurttemberg, Germany).
To confirm the western blot data, the LC3B accumulation in GBM cells was monitored using a confocal microscope. Both U87MG and U373MG cells transfected with a green fluorescent protein (GFP)-tagged LC3 expression plasmid were treated with 10 μM PD for 24 hours and examined under a confocal microscope.

U87MG and U373MG cells [1] = assay: Cholesterol cell-based detection assay (filipin III staining) in GBM cells; parameters: species or system human; details: PD 10 μM or U18666a 1 μM, 24 hours
Protocol: (§1) FIGS. 15A and 15B show the results that PD promotes accumulation of cholesterol in lysosomes. Cells were treated with DMSO, PD (10 μM), or U18666a (1 μM) for 24 hours. […] Total cholesterol levels are expressed in cholesterol (μg) per protein (mg) of cell lysate and are shown as means±SD from two independent experiments.
Cells grown on coverslips were treated with the materials. Then, the cells were fixed with 4% PFA at room temperature for 10 minutes. The solution of Filipin III (Cayman) was added for staining of […] cholesterol and the samples were incubated in a dark room for 30 minutes. The images were examined under a Zeiss laser confocal microscope.
The present inventors concluded that PD inhibits the maturation of autophagosome into autolysosomes by inhibiting lysosomal degradation and an autophagosome-lysosome fusion in GBM cells. […] To examine whether the defect in the autophagosome-lysosome fusion by PD is due to altered intracellular cholesterol levels, the PD-treated GBM cells were stained with filipin-III, which is a fluorescent dye that binds to cholesterol. […] As can be confirmed in FIG. 14A, this filipin-III staining pattern is very similar to that found in GBM cells treated with U18666A, implying that PD blocks cholesterol release from lysosome and accumulates cholesterol in lysosomes.

U87MG and U373MG cells [2] = assay: Cholesterol measurement (total cholesterol assay kit) in GBM cells; type: cell-based, human; details: PD 10 μM or U18666a 1 μM, 24 hours
Protocol: as §1
Cells treated as described above were processed using a total cholesterol assay kit (STA384, Cell Biolabs) according to the manufacterer's instructions. Cholesterol esters and free cholesterol were quantified by homogenizing 10^6 cells extracted from a 200 μL mixture of chloroform: isopropanol: NP-40 (7:11:0.1). After centrifugation of the extract at 15,000× g for 10 minutes, the organic phase was collected and evaporated at 50° C. The extract was resuspended in 200 μL of a 1× cholesterol assay diluent prior to analysis. The colorimetric signal was analyzed using an ELISA reader (Versa Max, Molecular Devices, Sunnyvale, Calif., USA) at 540 nm. Cellular cholesterol results were reported as μg of cholesterol per mg of cell protein.

LDLR-silenced GBM cells = assay: WST1 assay and immunoblot in LDLR-silenced (shLDLR) GBM cells; type: cell-based, human
From the text: FIGS. 20A and 20B show the results that downregulation of LDLR restores inhibition of autophagy and cell viability. […] The expressions of LDLR, LC3B, SQSTM1, and pro/active CTSB were detected by immunoblot analysis. GAPDH was used as a loading control. […] Data shown represent the means of quintuplicate measurements which were repeated three times. The results are presented as a percentage of control (means±SD).
shRNA sequences against LDLR were cloned into a lentiviral vector. For the production of lentivirus, the vectors were co-transfected with psPAX2 and pMD2.G in 293T cells using Lipofectamine 3,000 (Invitrogen). Then, the cultured medium was harvested. The viral supernatant was applied to GBMs and cells were selected in puromycin for 3 additional days. The shRNA sequence was as follows. shLDLR sequence: 5′-CCACTTGTAGGAGATGCAT-3′ (SEQ ID NO: 7).
The present inventors hypothesized that the enhanced expression of LDLR and uptake of exogenous cholesterol by PD may promote accumulation of cholesterol in lysosomes and contribute to PD-mediated inhibition of autophagy and cell viability in GBM cells. To this end, the expression of LDLR gene was silenced in GBM cells using lentiviral shRNA transduction.

C[C@@H]1O[C@@H](O[C@H]2[C@H](OC(=O)[C@]34CCC(C)(C)C[C@H]3C3=CC[C@@H]5[C@@]6(C)C[C@H](O)[C@H](O[C@@H]7O[C@H](CO)[C@@H](O)[C@H](O)[C@H]7O)C(CO)(CO)[C@@H]6CC[C@@]5(C)[C@]3(C)C[C@H]4O)OC[C@H](O)[C@@H]2O)[C@H](O)[C@H](O)[C@H]1O[C@@H]1OC[C@@H](O)[C@H](O[C@@H]2OC[C@](O)(CO)[C@H]2O)[C@H]1O [PD, platycodin D]
p62 mRNA levels (SQSTM1 mRNA): did not alter
fold increase of GFP-LC3 puncta per cell vs DMSO (U373 cells): 8.9 fold
GFP-LC3 puncta per cell (U373 cells; mean±SD): 32.84±3.98
cellular cholesterol distribution (filipin-III staining) (U87MG and U373MG cells [1]): induces cholesterol accumulation within intracellular vesicles
free cholesterol levels (U87MG and U373MG cells [2]): significant increase
reduction of cell viability (LDLR-silenced GBM cells; LDLR-silenced GBM cells, PD 10 μM or 20 μM, WST1): less effective
LC3-II, p62 and cathepsin B response to PD (LDLR-silenced GBM cells; knockdown of LDLR, PD 5 μM or 10 μM, 24 hours, immunoblot): prevented the upregulation of LC3-II and p62 as well as the inactivation of cathpsin B
